Reference: US11185527B2, “Methods and compositions relating to steroid hormone receptor-dependent cancers” (Wayne State University, priority 2017, dated 2021)

Legend:
[1] = system: ELK1-dependent promoter activation by AR; test: Primary screening assay: luciferase reporter in recombinant HeLa cells (Gal4-TATA-Luc, Gal4-ELK1, AR) treated with testosterone; format: cell-based, human
Excerpt: FIG. 6A is a schematic diagram of the reporter system for the primary screening assay. Recombinant HeLa cells used in this assay harbor the Gal4-TATA-Luc promoter-reporter, and stably express a Gal4-ELK1 fusion protein as well as the androgen receptor (AR). Gal4-ELK1 is bound to the Gal4 elements in the promoter. In the absence of testosterone (small circle), AR is localized in the cytoplasm. When testosterone is present it binds to AR causing AR to translocate to the nucleus where it then binds to Gal4-ELK1 and activates the downstream luciferase reporter.
HeLa HLR cells obtained from Dr. Johann Hofman (Innsbruck Medical University), which were originally designed to serve as a cell-based assay system to measure modulation of MAPK activity. HeLa HLR cells have a stably integrated minimal promoter-luciferase reporter containing five upstream Gal4 elements (Gal4-TATA-Luc) and also constitutively express a Gal4-ELK1 fusion protein in which the Gal4 DNA binding domain is substituted for the ETS DNA binding domain of ELK1. In order to produce recombinant cell lines for high throughput screening and counter screening of small molecule libraries, HeLa HLR were stably transduced with a vector expressing the full-length AR. A sequence encoding the full length AR (SEQ ID NO:9) was subcloned from the pCMV expression vector (Origene) into the pCDH-CMV-MCS-EF1-Puro cDNA Cloning and Expression Vector (System Biosciences) at NheI (upstream) and BamHI (downstream) sites. The lentiviral vector expressing full length AR was then packaged in lentivirus and the HeLa HLR cells were infected as described below in the sub-section “Lentivirus-mediated-Transduction.” After 72 hours (h) of infection, 2 ug/mL of puromycin was added to the culture medium to select for the transduced cells. The cells were plated at low density for colony formation (20-40 colonies) in a 100 mm dish. Clonal cells were isolated using cloning cylinders from CORNING (Cat. #3166-8). The selected clones were further expanded and then tested for luciferase induction by testosterone. The clone that gave the greatest luciferase signal to noise ratio in response to testosterone treatment was then chosen for use in the primary screening assay for high throughput small molecule screening.
For high throughput screening, recombinant primary screening cells were first depleted of hormone by growing them for 24h in medium in which the serum used was heat-inactivated and charcoal-stripped. The cells were then plated in 384-well white flat bottom plates (5,000 cells/well) (Corning Product #3570) using a Multidrop (Thermo Fisher Scientific, Waltham, Mass.). The plates were then incubated for 24h prior to adding test compounds. The following day test compounds from the LOPAC, Prestwick, or Maybridge Hitfinder libraries were added precisely in a 0.2 μL volume in the test wells using a Biomek FX liquid handler (Beckman Coutler, Break, Calif.) to achieve final media concentration of 10 μM of each test compound. Using the Multidrop (ThermoLab Systems, Helsinki, Finland), testosterone was added in addition to the test compounds to achieve a final media concentration of 10 nM. As the test compounds were re-constituted from powder stocks using dimethyl sulfoxide (DMSO) as the solvent, the final media concentration of DMSO was 0.4% v/v. For the assay negative control on each plate, one row of wells on each plate contained 10 nM testosterone and 0.4% v/v of DMSO. For the assay positive control on each plate, one row of wells on each plate contained 10 nM testosterone and 10 uM enzalutamide dissolved in DMSO (0.4% v/v of DMSO in the wells). The plates were incubated for 24h at 37° C. in 5% CO2. The medium was then aspirated leaving a residual volume 10 μl using an Elx 405-plate washer (Bio Tek U.S.). Then, 10 uL of the assay reagent Bright-Glo (Promega Corp., Madison Wis.) was added to each well. […]

[2] = system: activation of ELK1 by MEK/ERK; test: Gal4-ELK1 reporter activation by constitutively active MEK1 in transfected HeLa cells; format: cell-based; conditions: HeLa cells with caMEK1; trametinib 1 μM, KCI807 20 μM
Method: FIG. 8 is a graph showing results of co-transfection of HeLa cells with the Gal4-TATA-Luc construct and the expression plasmid for the Gal4-ELK1 fusion protein. In addition the cells were transfected with an expression plasmid for a constitutively active MEK1 protein (caMEK1). The cells were then treated with the MEK1 inhibitor, trametinib (1 μM), KCI807 (20 μM), or vehicle (DMSO). Cells were harvested 48h post transfection and luciferase activity was measured. In all panels, the error bars represent standard deviation of experimental triplicates. *P<0.001
Hela Cells were plated in a 24-well plate at a concentration of 75,000 cells/well in antibiotic-free red DMEM. The following day the cells were transfected with a total of 300 ng of plasmid DNA/well using Lipofectamine 2000. The cells were incubated for 24h then lysed using luciferase assay lysis buffer 5X from Promega. The luciferase activity of the cell lysates were measured using firefly substrate from Promega and a luminometer (Lumat LB9501, Berthold, Wildbad, Germany).
As a secondary test of target selectivity, the effect of 5,3′-dihydroxyflavone on activation of ELK1 by MEK/ERK was examined using HeLa cells co-transfected with the Gal4-TATA-Luc construct, the expression plasmid for the Gal4-ELK1 fusion protein and either an expression plasmid for a constitutively active MEK1 protein (caMEK1) or vector control.

[3] = system: 22Rv1 human CRPC xenograft; test: 22Rv1 CRPC tumor xenograft in male SCID mice, tumor growth; conditions: KCI807 IP 250-300 mg/kg every other day; enzalutamide PO 50-60 mg/Kg daily; from day 3
[4] = system: HeLa (cervical cancer cells), AR-negative; test: Cell monolayer growth assay (MTT); format: cell-based
Method: FIG. 12B is a graph showing the effect of KCI807 on in vitro growth of AR-negative cell line HeLa cells measured by the MTT assay. All values were plotted relative to the Day zero value. Cells were trypsinized and 3000-4000 cells/well were seeded in 96-well plates coated with poly-D-lysine. The cells were seeded in phenol red-free medium supplemented with 10% FBS, 100 units/ml penicillin, 100 μg/ml streptomycin, 2 mM L-glutamine mixture and sodium pyruvate (1 mM) for LNCaP cells and phenol red-free medium supplemented with 10% FBS, 100 units/ml penicillin, 100 μg/ml streptomycin and 2 mM L-glutamine mixture for VCaP, 22Rv1, DU145, HeLa, HEK293 and H1650 cells. The cells were grown at 37° C. in 5% CO2. Twenty four hours after seeding in the 96-well plates, the cells were treated with the indicated concentration of KCI807 or DMSO (vehicle). The cells were re-treated on Day 3 by removing half the volume of medium and replacing it with fresh treated medium. Cell viability was determined using the MTT assay from day zero until day five. MTT (10 μL, 5 mg/mL) was added to each well and incubated for 2h at 37° C. The formazan crystal sediments were dissolved in 100 μL of DMSO, and the absorbance at 570 nm was measured using the BioTek Synergy 2 Microplate Reader (BioTek, Winooski, Vt.). The assay was conducted in sextuplicate wells and values were normalized to day zero.

Compound | inhibition of ELK1-dependent promoter activation by AR (in words) ([1]; testosterone-treated recombinant HeLa cells, luciferase) | selectivity for ELK1-dependent versus ARE-dependent promoter activity ([1]; primary versus counter screening assay) | inhibition of luciferase reporter activation by MEK1 (activation of ELK1 by MEK/ERK) [2] | tumor growth inhibition, 22Rv1 xenograft [3] | growth of HeLa cells [4]
CNC(=O)c1ccc(N2C(=S)N(c3ccc(C#N)c(C(F)(F)F)c3)C(=O)C2(C)C)cc1F [enzalutamide] | completely suppressed the signal |  |  |  | 
O=c1cc(-c2cc(O)cc(F)c2)oc2cccc(O)c12 [5′-fluoro-5,3′-dihydroxyflavone] |  | more selective for the ELK1-dependent promoter activity than ARE-dependent activity | did not affect |  | 
O=c1cc(-c2cccc(O)c2)oc2cccc(O)c12 [KCI807, 5,3′-dihydroxyflavone] |  |  | did not inhibit | inhibited | did not appreciably affect the growth
